Results reported in patent EP4786466A1, “QUINAZOLINE DERIVATIVE, SALT THEREOF, AND PHARMACEUTICAL COMPOSITION COMPRISING SAME AS ACTIVE INGREDIENT” (Korea Research Institute of Chemical Technology, priority 2023, dated 2025).
Structures can show the parent of a compound that is named as a salt. Where two headings read alike, the source gives them in different places.

Experiments:
in vitro = settings: human
Description: (§1) MCF7 breast cancer cell lines and MCF10A normal breast cancer cell lines were treated with serial dilutions of the compounds of the present invention ranging from 1 µM to 15.63 nM for 72 hours. Cell viability was measured by the WST-8 assay (Cyto XTM cell viability assay kit; LPS solution, Daejeon, Korea) according to the manufacturer's instructions.

pENSA = pENSA level by immunofluorescence (described method: in vitro kinase analysis with GST-tag-MASTL and His-tag-ENSA); format: cell-based; settings: for pENSA (%) Immunofluor ecense (1 µM): compound 1 µM
In short: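 In vitro kinase reaction using recombinant GST-tagged MASTL with His-tagged ENSA as substrate; phosphorylated ENSA (pENSA) serves as read-out of MASTL activity. Cell lines named: MCF7 breast cancer and MCF10A.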

[1] = tested on: MCF10A normal breast cell lines; assay: Cell viability analysis, WST-8 assay, MCF10A; settings: Homo sapiens, MCF-10A, 72 h
Description: as §1

[2] = tested on: MCF7 breast cancer cell lines; assay: Cell viability analysis, WST-8 assay, MCF7; settings: Homo sapiens, MCF7, 72 h; for viability at 1.25 µM: read-out: Cell viability (%) WST-8, MCF7, footnote a: concentration 1.25 µM, 72 hours; for viability at 1 µM: read-out: Cell viability (%) WST-8, MCF7 (1 µM), compound 1 µM, 72 hours
Description: as §1

[3] = target: T1, Recombinant GST-TAG-MASTL (Homo sapiens, UniProt Q96GX5); assay: HTRF-based kinase assay (HTRF KinEASE assay kit); format: biochemical; settings: for activity at 10 µM: read-out: MASTL activity (%) HTRF; for activity at 1 µM: compound 1 µM, read-out: MASTL activity (%) HTRF (1 µM)
T1 construct: GST; purchased Thermo Fisher Scientific
T1 sequence (Q96GX5 1-879): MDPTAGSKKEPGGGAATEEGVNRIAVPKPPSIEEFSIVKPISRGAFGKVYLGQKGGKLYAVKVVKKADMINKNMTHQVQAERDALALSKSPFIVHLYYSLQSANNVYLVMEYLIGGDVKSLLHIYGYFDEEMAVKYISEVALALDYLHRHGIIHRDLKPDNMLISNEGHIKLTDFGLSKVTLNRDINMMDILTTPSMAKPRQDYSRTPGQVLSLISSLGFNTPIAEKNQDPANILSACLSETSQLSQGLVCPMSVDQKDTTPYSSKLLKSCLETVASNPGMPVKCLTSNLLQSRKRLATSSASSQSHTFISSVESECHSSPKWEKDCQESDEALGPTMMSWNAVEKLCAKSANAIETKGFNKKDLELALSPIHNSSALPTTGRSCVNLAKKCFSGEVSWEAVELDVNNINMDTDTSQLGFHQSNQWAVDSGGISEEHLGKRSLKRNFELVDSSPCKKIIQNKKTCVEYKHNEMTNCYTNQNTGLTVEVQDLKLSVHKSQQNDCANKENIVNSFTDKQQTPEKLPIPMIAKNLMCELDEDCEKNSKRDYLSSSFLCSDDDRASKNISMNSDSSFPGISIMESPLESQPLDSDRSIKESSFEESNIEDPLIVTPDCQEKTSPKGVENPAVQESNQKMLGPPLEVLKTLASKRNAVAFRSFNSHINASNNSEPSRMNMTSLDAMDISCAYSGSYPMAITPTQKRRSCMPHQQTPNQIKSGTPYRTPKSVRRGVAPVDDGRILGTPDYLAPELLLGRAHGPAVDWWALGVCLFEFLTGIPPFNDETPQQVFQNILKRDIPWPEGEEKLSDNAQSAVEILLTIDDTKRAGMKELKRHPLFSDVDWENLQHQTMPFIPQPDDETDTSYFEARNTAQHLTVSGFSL
Excerpt: Recombinant GST-TAG-MASTL (Thermo Fisher Scientific, MA, USA) was used for HTRF-based kinase assays. The HTRF KinEASE assay kit (CisBio, MA, USA) was used according to the manufacturer's instructions.

[4] = read-out: IC50 Cell viability (MCF10A)
[5] = read-out: IC50 Cell viability (MCF7)
[6] = HTRF, read-out: IC50(nM) MASTL activity
[7] = footnote b: concentration 10 µM
[8] = read-out: IC50(nM) Cell viability (MCF10A)
[9] = read-out: IC50(nM) Cell viability (MCF7)

Row | Structure (SMILES) | viability at 1.25 µM (in vitro) [%] | IC50 (pENSA; read-out: IC50(nM) pENSA) [nM] | IC50 [1, 4] [nM] | viability at 1.25 µM [2] [%] | IC50 [2, 5] [nM] | IC50 [3, 6] [nM] | activity at 10 µM [3, 7] [%] | viability at 1.25 µM (in vitro; mcf10a cells) [%] | pENSA (%) Immunofluor ecense (1 µM) (pENSA) [%] | viability at 1 µM (in vitro) [%] | IC50 (pENSA; unit µM, read-out: IC50 pENSA) [nM] | IC50 [1, 8] [nM] | viability at 1 µM [2] [%] | IC50 [2, 9] [nM] | activity at 1 µM [3] [%] | IC50 [3] [nM] | activity at 10 µM [3] [%]
1 | c1ccc(CCNc2nc(Nc3cc(C4CC4)[nH]n3)c3ccccc3n2)cc1 [compound 4ce, N^4-(5-cyclopropyl-1H-pyrazol-3-yl)-N^2-phenethylquinazoline-2,4-diamine] | 100 | 491 | 3700 | 72.8 | 1500 | 692 | 14.1 | – | – | – | – | – | – | – | – | – | –
2 | OCCNc1nc(Nc2cc(C3CC3)[nH]n2)c2ccccc2n1 [compound 4cf, 2-((4-((5-cyclopropyl-1G-pyrazol-3-yl)amino)quinazolin-2-yl)amino)ethan-1-ol hydrochloride] | – | 423 | 1200 | 87 | 1800 | 893 | 23.7 | 56.4 | 17.4 | – | – | – | – | – | – | – | –
3 | c1ccc2c(Nc3cc(C4CC4)[nH]n3)nc(Nc3cccc4[nH]ccc34)nc2c1 [compound 4da, N^4-(5-cyclopropyl-1H-pyrazol-3-yl)-N^2-(1H-indol-4-yl)quinazoline-2,4-diamine] | – | – | – | – | – | 309 | – | – | – | 18.9 | 1800 | 683 | 30.1 | 702 | 58.5 | – | –
4 | c1ccc2c(Nc3cc(C4CC4)[nH]n3)nc(Nc3ccc4[nH]ccc4c3)nc2c1 [compound 4db, N^4-(5-cyclopropyl-1H-pyrazol-3-yl)-N^2-(1H-indol-5-yl)quinazoline-2,4-diamine] | – | – | – | – | – | – | – | – | – | 8.9 | 2100 | 300 | 3.2 | 221 | 28.9 | – | –
5 | c1ccc2c(Nc3cc(C4CC4)[nH]n3)nc(Nc3ccc4cc[nH]c4c3)nc2c1 [compound 4dc, N^4-(5-cyclopropyl-1H-pyrazol-3-yl)-N^2-(1H-indol-6-yl)quinazoline-2,4-diamine] | – | – | 1300 | – | – | 480 | – | – | – | 54 | 2500 | – | 6.4 | 467 | 22.1 | – | –
6 | c1ccc2c(Nc3cc(C4CC4)[nH]n3)nc(Nc3ccc4[nH]ncc4c3)nc2c1 [compound 4dd, N^4-(5-cyclopropyl-1H-pyrazol-3-yl)-N^2-(1H-indazol-5-yl)quinazoline-2,4-diamine] | – | – | – | – | – | 157 | – | – | – | 3.7 | 1500 | 107 | 12.9 | 317 | 17.9 | – | –
7 | CNS(=O)(=O)c1ccc(Nc2nc(Nc3cc(C4CC4)[nH]n3)c3ccccc3n2)cc1 [compound 4h, 4-((4-((5-cyclopropyl-1G-pyrazol-3-yl)amino)quinazolin-2-yl)amino)-M-methylbenzenesulfonamide] | – | 408 | – | 41.8 | – | 843 | 17.6 | 4.7 | 17.1 | – | – | 57.2 | – | 758 | – | – | –
8 | O=S(=O)(NCCO)c1ccc(Nc2nc(Nc3cc(C4CC4)[nH]n3)c3ccccc3n2)cc1 [compound 4i, 4-((4-((5-cyclopropyl-1G-pyrazol-3-yl)amino)quinazolin-2-yl)amino)-M-(2-hydroxyethyl)benzenesulfonamide] | – | 378 | – | 45.9 | 1100 | – | – | 5.8 | 16 | – | – | 132 | – | – | – | 1200 | 8.7
